Earlier results on one substance are cited in patent publication US20060205656A1 (priority 1999, published 2006).

For the data set the following is noted: in vivo.

On to contulakin-G, for which the “potency in inhibiting pain relative to neurotensin” value was “significantly more potent than neurotensin”.
